One assay concerns HaCaT keratinocytes. Kind of assay: Fluorescein diacetate cellular viability assay. Conditions: Homo sapiens, light or radiation study, read after 24 h. Type of assay: cell-based. As for the experimental part:
A fluorescein diacetate cellular viability assay measuring the viability of HaCaT keratinocytes in response to treatment with compound 92 without irradiation (no light) and when irradiated (Light) was carried out as follows:
HaCaT keratinocyte cells were seeded in two 96 well plates and incubated for 24 h at 37° C. 5% CO2. The incubating media was removed and compound 92 was added at a range of concentrations, along with a dimethyl sulfoxide (DMSO) control, before the cells were incubated for one hour at 37° C. 5% CO2, whereupon one plate was irradiated at 405 nm for 5 min (72 mW/cm^2). Both plates were then incubated at 37° C. 5% CO2 for 24 h. The media was removed, and cells were washed with 1× phosphate buffered saline (PBS), then fluorescein diacetate (FDA) was added, and the cells were incubated at RT, in the dark, for 10 min. The fluorescein diacetate stain was then removed, and cells were washed with 1× phosphate buffered saline. The plates were read at 485/520 nm to determine cell viability at differing treatment concentrations of compound 92 with and without light exposure.

The subject of another assay is HDAC enzymes. Kind of assay: Immunofluorescence imaging with anti-acetyl-H3 primary antibody (acetylated H3 histones). Type of assay: cell-based. The following applies: HaCaT keratinocytes, compound at 5 μM. As to the method: HaCaT or SCC-4 cells were seeded at 50,000 cells per well in sterile coverslip containing 6-well plates. The next day, cells were treated with the compound of interest for 30 minutes before “Light” treated cells were irradiated. The following day, cells were then fixed using 4% PFA, permeabilised using Triton X-100/Tween 20, blocked in BSA/goat serum (dependent on the antibodies) and stained with primary then secondary antibodies before coverslips were mounted on slides and imaged on a Zeiss LSCM 880.
Immunofluorescence imaging of HaCaT keratinocytes treated with compound 92 (5 μM) and ethanol (EtOH), and co-treated with an anti-acetyl-H3 primary antibody that detects the presence of acetylated H3 histones was carried out as follows:
[…] Cells were washed in phosphate buffered saline then fixed in 4% PFA. Cells were washed again with phosphate buffered saline before blocking and permeabilization with 0.3% triton 100-X/5% goat serum in phosphate buffered saline for 60 min. Cells were then washed with phosphate buffered saline and anti-acetyl-histone 3 antibody was added and incubated overnight at 4° C. Second antibody (Alexa-594 anti-rabbit) was added for 45 min before cells were washed again and mounted for imaging.
This delayed behaviour is indicative of an initial lag phase as compound 92 is enzymatically metabolised to the active form.

Where two headings read alike, the source gives them in different places.

As a reminder, the IC50 is the midpoint of a concentration-inhibition curve. As to `COC(=O)/C=C/c1ccc(C#Cc2cnc(N3CCN(C(=O)CCCCCCC(=O)NOC(C)=O)CC3)s2)cn1` [compound 92, Methyl (2E)-3-(5-{2-[2-(4-{7-[(acetyloxy)carbamoyl]heptanoyl}piperazin-1-yl)-1,3-thiazol-5-yl]ethynyl}pyridin-2-yl)prop-2-enoate], the IC50 stood at 0.69 µM with HaCaT keratinocytes (1 h treatment, irradiated at 405 nm for 5 min (72 mW/cm^2), read-out: IC50 cell viability, light activation) and 5.5 µM in the assay on HaCaT keratinocytes (no irradiation, read-out: IC50 cell viability, without light activation). The “Acetylated H3 build-up (nuclear ring phenotype) after one hour” value in the assay on HDAC enzymes (one hour) is on record as “characteristic nuclear ring phenotype”. Besides, the “Acetylated H3 build-up (nuclear ring phenotype) after ten minutes” value in the assay with HDAC enzymes (ten minutes) was “limited activity”.
